Experiments:
[1] = system: c-Fos expression in hippocampus; test: c-Fos expression in hippocampus after seizures in rats (immunohistochemistry); assay type: in vivo, rat; design: concentration or dose not given beside the values
Method: After the completion of the PTZ-induced epileptic status behavior experiment, the animals were anesthetized by intraperitoneal injection of sodium pentobarbital (60 mg/kg). The blood vessels were washed by perfusion of 200 mL normal saline through the ascending aorta of the left ventricle, and then perfused with 400 mL fixative solution (0.1M PBS containing […], pH7.4, 4° C.) for 1-2 h. After the brain tissue was removed and placed in the same fixative overnight, it was immersed in 20% sucrose solution until it sank to the bottom of the container, and then immersed in 30% sucrose solution until it sank to the bottom of the container.
The hippocampal region was secreted from the brain of the rats using a refrigerator slicer (Leica 1900, Germany) with a thickness of 20 μm. The slices were pasted on gelatin-chromium potassium sulfate treated glass slide and frozen at −20° C. for later use. C-Fos immunohistochemistry was performed as follows: • (1) The slice was taken out of the −20° C. refrigerator, reheated for 30 min, framed with a histochemical pen around the slice, and dried; • (2) The slices were immersed for 30 min for braking membrane in 1% Triton-X solution added with 1% H2O2; • (3) Rinsed 3 times with 0.01M PBS (pH7.4) buffer, 5 min for each time; • (4) Sealed with 5% Goat serum at 37° C. for 1 h; • (5) The serum was sucked dry with filter paper, rabbit anti-c-Fos antibody (1: 400, Sc-52, Santa Cruz, USA) was added, the antibody was diluted with 0.01 M PBS, 100 μL for each section, and incubated in a wet box at 4° C. for 48 h; • (6) Rinsed with 0.01 M PBS (pH 7.4) for 10 min and repeated 3 times; • (7) Biotin-labeled goat anti-rabbit IgG diluted with 0.01 M PBS (1:200) was added at room temperature for 2 h; • (8) Rinsed with 0.01 M PBS for 10 min and repeated 3 times. ABC complex (A:B:PBS=1:1:100) was added at room temperature for 2 h; • (9) Rinsed with 0.01 M PBS (pH 7.4) for 10 min and repeated 3 times; • (10) Stained in the dark by DAB-nickel sulfate amine-glucose oxidase (DAB, Sangon Biotech) for 10 min; • (11) Dehydration, 70%, 80%, 95%, 100% (×2) were used for dehydration, 5 min each time, and then soaked with xylene twice, 5 min each time; • (12) The expression of c-Fos was observed under a microscope and sealed with neutral gum.
The number of c-Fos-like immunoreactive (FLI) neurons in different hippocampal regions (CA1, CA3) and dentate gyrus (DG) was counted. Two groups of animals (6 animals in each group) were randomly selected from 6 to 8 sections for FLI counting in different regions (counting respectively on the same side and the other side of injected toxin or normal saline), and the average value was calculated at last. The inhibition rate of c-Fos expression was calculated according to the following formula. Inhibitory ratio=(A−B)/A×100%
Wherein, A represents the number of FLI neurons in the normal saline control group; B represents the number of FLI neurons in the MarTX toxin injection group in the corresponding region of the hippocampus.

hippocampal neurons = test: Hippocampal neuron damage after seizures in rats (Nissel staining); assay type: in vivo, rat; details: versus normal saline group
Method: (1) The slice was taken out of the −20° C. refrigerator, reheated for 20 min, framed with a histochemical pen around the slice, and dried;
(2) The slice was soaked in distilled water for 2 min;
(3) Nissel staining solution (purchased from Beyotime) was dropped on the brain slice, and dyed in a 37° C. water bath for 10 min;
(4) Washed twice with distilled water for 10 s each time;
(5) Sections were dehydrated with 70%, 80%, 95%, 100% alcohol, 2 min each time, and then soaked with xylene twice, 5 min each time;
(6) The nissel body staining was observed under a microscope and sealed with neutral gum.
The above two groups of animals (6 animals in each group) were randomly selected from 6 to 8 sections to count the neuron cells in different hippocampal regions (CA1, CA3 and DG). Finally, the average value was taken and the increasing rate of the number of neurons was calculated.

[2] = system: rat hippocampal neurons pretreated with PTZ; test: Patch clamp current record and action potential analysis; assay type: cell-based
Method: If the resting membrane potential of the cell was −70 mV and the input resistance was 350MΩ or more, the patch clamp current was considered acceptable. The record was held at −80 mV as the holding current and induced by increasing positive current injection (for 1000 ms). The action potential differences between PTZ treated cells (measured 24 h after application) and PTZ treated epileptic cells (measured 10 min after application) treated with rMarTX were compared. The peak width was measured at half the peak amplitude of the action potential. The difference between the peak threshold value and the minimum voltage after the peak value of the action potential was used as the measurement value of the post-superpotential. Peak interval was the time between action potential peaks.
In the current patch clamp recording, the standard external solution was composed of 1.2 mM MgCl2, 10 mM HEPES, 10 mM glucose, 1.5 mM CaCl2, 2.5 mM KCl and 145 mM NaCl. The pH of the solution was adjusted to 7.4 with NaOH. The internal solution was composed of 1 mM CaCl2, 4 mM MgCl2, 10 mM HEPES, 11 mM EGTA, and 140 mM KCl. The pH of the solution was adjusted to 7.2 with KOH.

rat PTZ convulsion model = test: Recurrent convulsive behavior of PTZ in rat; assay type: in vivo
Method: Adult male SD rats were placed in a transparent glass box of 40×30×50 cm to observe the convulsive reaction after administration. Before injection, rats were placed in the box 1 h in advance, moved freely to adapt to the environment, and then injected PTZ (60 mg/kg) intraperitoneally to induce convulsion in rats. The experiment was divided into toxin injection group and normal saline blank control group.
(1) MarTX toxin injection group: after one intraperitoneal injection of PTZ to induce seizures of epilepsy, the rats were injected with MarTX toxin (dissolved in 2 μL normal saline) in the hippocampus the next day, and then the PTZ was injected again. The toxin dose was 0.08 μg, n=7-8 (n is the number of experimental rats);
(2) Normal saline blank control group: after one intraperitoneal injection of PTZ to induce seizures of epilepsy, the rats were injected with the same amount of normal saline into the hippocampus one day later, and then PTZ was injected again, n=6.
In the experiment, “double-blind” dosing and animal behavioral study were used to reduce human error. Incubation period, mortality, duration and number of seizures under different severity of seizures were measured as statistical indexes. The severity of seizures in rats was rated according to the following criteria [Neurophysiol. 1972, 32, 281-294; Brain Res. 1997, 758, 92-98]: • Grade 0: no response; • Grade 1: rhythmic twitch of mouth and face; • Grade 2: wave-like migratory spasm of body; • Grade 3: systemic myoclonus and hip upturned; • Level 4: the body turned to one side; • Grade 5: inverted position, systemic rigidity spasticity seizure.
A complete convulsive seizure was defined as the period from the onset of the seizure to the return to normal after the seizure. The interval of more than 5 s between seizures was defined as another independent seizure. Incubation period was defined as the time from PTZ injection to the beginning of the first grade 2 seizure.

[3] = system: hippocampus field potential; test: Field potential in hippocampus after seizure in rats; assay type: in vivo, rat; details: PTZ epilepsy model, versus normal saline group, n=3
Method: Microarray electrodes were implanted according to the sixth edition of “Rat Brain Stereotactic Atlas” (FIG. 1) edited by George Paxinos and Charles Watson to determine the position of the electrodes: AP: 4.3 mm, MR: 2.2 mm, DV: 2.5 mm, and 3-4 screws were fixed in the blank region of the skull as reference electrodes. The recording electrode and electrode base were fixed with dental cement. Field potentials (FP) were recorded after waking rats. FP signal and sync video could be recorded via omniplex (plexon, USA). According to Nesquet's sampling theory, the back end of the electrode was connected to a preamplifier and coupled to the analog-to-digital converter box. […] was taken as the sampling frequency of local field potential recording, and a […] were set for continuous recording for more than 30 minutes. The local field potential recording results were exported to *. pl2 file format, and visual preview was carried out using offline sorter v4 software. The same channel was used to analyze the local field potential, and the data were derived by MATLAB (MathWorks, USA) program. The local field potential signals of different frequencies were decomposed by wavelet transform to obtain the […] of different frequencies (δ: ˜0-4 Hz, θ: ˜4-8 Hz, α: ˜8-13 Hz, β: ˜13-30 Hz, γ: ˜30-100 Hz). […]

[4] = contralateral hippocampus, CA1 region
[5] = contralateral hippocampus, CA3 region
[6] = contralateral hippocampus, DG region
[7] = ipsilateral hippocampus, CA1 region
[8] = ipsilateral hippocampus, CA3 region
[9] = ipsilateral hippocampus, DG region
[10] = 300 pA current injection, versus normal saline group, n=4
[11] = 0.08 μg in hippocampus, PTZ 60 mg/kg i.p., within 2 h
[12] = MarTX relative to normal saline

## Martentoxin [MarTX]
[1]; [4]
  Inhibitory rate of c-Fos expression: 54.01%
[1]; [5]
  Inhibitory rate of c-Fos expression: 55.25%
[1]; [6]
  Inhibitory rate of c-Fos expression: 78.53%
[1]; [7]
  Inhibitory rate of c-Fos expression: 60.71%
[1]; [8]
  Inhibitory rate of c-Fos expression: 51.18%
[1]; [9]
  Inhibitory rate of c-Fos expression: 84.98%
Hippocampal neurons; [4]
  Neuronal increase rate: 79.50%
Hippocampal neurons; [5]
  Neuronal increase rate: 94.82%
Hippocampal neurons; [6]
  Neuronal increase rate: 79.62%
Hippocampal neurons; [7]
  Neuronal increase rate: 95.73%
Hippocampal neurons; [8]
  Neuronal increase rate: 102.02%
Hippocampal neurons; [9]
  Neuronal increase rate: 93.43%
[2]; 100, 200 and 300 pA current injection, versus normal saline group, n=4
  Discharge rate (number of action potentials): significant decrease
[2]; 300 pA current injection, versus PTZ pretreated cells (normal saline group), n=4
  Action potential peak interval: significantly longer
[2]; [10]
  Action potential width: greater
  Amplitude of the post-hypertrophy potential: significantly increased
[2]; higher current injection (300 pA), versus normal saline group
  Action potential failure: more action potential failure
Rat PTZ convulsion model; [11]
  Duration of epilepsy: 160.00 ± 38.47 s
  Number of deaths: 0/6
  The number of Grade 3 seizures: 0.50 ± 0.22
  The number of seizures from Grade 1 to Grade 2: 4.33 ± 1.36
  The number of seizures from Grade 4 to Grade 5: 0.50 ± 0.34
Rat PTZ convulsion model; 0.08 μg in hippocampus, PTZ 60 mg/kg i.p., within 2 h, time to first grade 2 seizure
  Incubation: 427.17 ± 62.21 s
Rat PTZ convulsion model; 0.08 μg, versus control group
  Decrease of the number of epileptic seizures (Grade 4 & 5): 77%
Rat PTZ convulsion model; [12]
  Duration of epilepsy, relative amplitude: 40%
  Incubation, relative amplitude: 272%
  The number of Grade 3 seizures, relative amplitude: 14%
  The number of seizures from Grade 1 to Grade 2, relative amplitude: 42%
  The number of seizures from Grade 4 to Grade 5, relative amplitude: 23%
Rat PTZ convulsion model; versus blank control group
  Reduction of the number of Grade 3 seizures: 86%
Rat PTZ convulsion model; versus control group
  Reduction of the duration of epilepsy: (2) MarTX toxin also significantly reduced the duration of epilepsy (duration of MarTX group: 160.00 ± 38.47 s, n = 6, *P < 0.05; control group was 400.00 ± 97.57 s, n = 6) by about 60%.
[3]
  Power spectrum density of brain δ, θ, α, β and γ waves: significantly lower

Source: US12220442B2, “Antiepileptic toxin Martentoxin and use thereof” (Shanghai Institute of Organic Chemistry, Chinese Academy of …, priority 2018, dated 2025)
